Earlier results as cited in patent publication US20190240144A1, “EFFERVESCENT DEFERIPRONE TABLET” (priority 2016, published 2019).

Settings: in vivo

half-life (t1/2): 5-10 minus
Structure (SMILES): CC(=O)N(O)CCCCCNC(=O)CCC(=O)N(O)CCCCCNC(=O)CCC(=O)N(O)CCCCCN [deferoxamine]
